Experimental findings from US9340590B2 (priority 2011, dated 2016) are described below.

Holding throughout (assay): cell-based
In assay [1] the target is hNav1.7 (Homo sapiens, UniProt Q15858). It is filed as cell-based. The note with it: IonWorks Quattro, read-out: IWQ Use Nav1.7.
Assay [2] concerns the target hNav1.5 (Homo sapiens, UniProt Q14524).
In assay [3] the target is hNav1.3 (Homo sapiens, UniProt Q9NY46). As to conditions: IonWorks Quattro, read-out: IWQ Use Nav1.3.
[4] abbreviates: IonWorks Quattro, Use, read-out: IWQ Use Nav1.5.

Like-named read-outs stand apart in the source and are kept apart here. Positions of bridges follow the written chain, without caps; N, C: chain ends. Residues, ends and D or L forms follow the SMILES beside them.

hNav1.3, sequence (Q9NY46 whole entry, looked up): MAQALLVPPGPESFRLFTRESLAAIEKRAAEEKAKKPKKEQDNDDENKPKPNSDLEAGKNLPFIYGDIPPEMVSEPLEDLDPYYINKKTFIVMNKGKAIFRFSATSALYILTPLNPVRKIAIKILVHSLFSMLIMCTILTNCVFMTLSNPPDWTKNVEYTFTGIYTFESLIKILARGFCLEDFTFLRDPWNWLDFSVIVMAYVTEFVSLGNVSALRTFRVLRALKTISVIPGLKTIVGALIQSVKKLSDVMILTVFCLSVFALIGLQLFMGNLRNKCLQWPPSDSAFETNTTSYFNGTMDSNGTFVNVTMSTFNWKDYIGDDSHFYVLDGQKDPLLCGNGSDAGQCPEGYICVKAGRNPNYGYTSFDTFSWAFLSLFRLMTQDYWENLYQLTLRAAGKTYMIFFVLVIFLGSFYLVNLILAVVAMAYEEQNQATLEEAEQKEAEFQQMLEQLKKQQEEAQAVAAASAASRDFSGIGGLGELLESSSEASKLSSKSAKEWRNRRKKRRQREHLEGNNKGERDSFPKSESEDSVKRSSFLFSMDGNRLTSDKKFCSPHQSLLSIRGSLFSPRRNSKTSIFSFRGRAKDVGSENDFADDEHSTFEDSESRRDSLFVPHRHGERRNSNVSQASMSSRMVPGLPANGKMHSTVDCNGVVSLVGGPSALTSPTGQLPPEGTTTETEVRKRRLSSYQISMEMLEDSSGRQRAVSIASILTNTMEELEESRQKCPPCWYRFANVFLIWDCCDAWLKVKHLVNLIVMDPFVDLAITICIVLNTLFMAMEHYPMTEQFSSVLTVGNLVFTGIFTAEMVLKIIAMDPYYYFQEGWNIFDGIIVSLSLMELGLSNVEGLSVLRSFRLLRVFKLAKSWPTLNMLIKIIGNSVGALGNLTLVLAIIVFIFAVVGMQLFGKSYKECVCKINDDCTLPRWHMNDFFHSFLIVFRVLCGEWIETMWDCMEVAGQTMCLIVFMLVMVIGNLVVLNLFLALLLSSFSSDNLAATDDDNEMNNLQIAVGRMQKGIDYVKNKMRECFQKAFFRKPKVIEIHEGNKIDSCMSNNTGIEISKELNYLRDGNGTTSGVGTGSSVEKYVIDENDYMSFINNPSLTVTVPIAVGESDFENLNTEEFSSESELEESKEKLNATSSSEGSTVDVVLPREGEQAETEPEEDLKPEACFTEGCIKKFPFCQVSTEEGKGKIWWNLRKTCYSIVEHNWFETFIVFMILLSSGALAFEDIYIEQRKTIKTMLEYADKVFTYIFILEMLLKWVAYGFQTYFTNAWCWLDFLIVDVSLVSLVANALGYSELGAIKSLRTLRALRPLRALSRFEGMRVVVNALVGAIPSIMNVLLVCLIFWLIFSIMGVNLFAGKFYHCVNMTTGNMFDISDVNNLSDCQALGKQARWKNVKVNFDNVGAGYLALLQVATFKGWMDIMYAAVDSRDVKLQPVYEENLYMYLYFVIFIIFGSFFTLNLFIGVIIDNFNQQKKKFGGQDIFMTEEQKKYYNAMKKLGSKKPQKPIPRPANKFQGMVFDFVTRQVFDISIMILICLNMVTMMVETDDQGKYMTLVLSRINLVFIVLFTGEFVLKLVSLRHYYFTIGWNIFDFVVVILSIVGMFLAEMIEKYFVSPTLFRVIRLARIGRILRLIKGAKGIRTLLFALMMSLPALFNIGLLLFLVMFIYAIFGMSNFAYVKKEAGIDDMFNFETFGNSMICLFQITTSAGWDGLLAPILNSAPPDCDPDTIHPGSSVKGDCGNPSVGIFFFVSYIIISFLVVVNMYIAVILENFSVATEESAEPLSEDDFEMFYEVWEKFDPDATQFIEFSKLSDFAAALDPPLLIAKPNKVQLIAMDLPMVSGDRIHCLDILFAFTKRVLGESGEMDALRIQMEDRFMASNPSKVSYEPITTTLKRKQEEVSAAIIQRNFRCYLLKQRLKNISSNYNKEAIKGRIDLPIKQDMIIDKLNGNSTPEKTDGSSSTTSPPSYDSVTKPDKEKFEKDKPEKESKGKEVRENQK
hNav1.5, sequence (Q14524 whole entry, looked up): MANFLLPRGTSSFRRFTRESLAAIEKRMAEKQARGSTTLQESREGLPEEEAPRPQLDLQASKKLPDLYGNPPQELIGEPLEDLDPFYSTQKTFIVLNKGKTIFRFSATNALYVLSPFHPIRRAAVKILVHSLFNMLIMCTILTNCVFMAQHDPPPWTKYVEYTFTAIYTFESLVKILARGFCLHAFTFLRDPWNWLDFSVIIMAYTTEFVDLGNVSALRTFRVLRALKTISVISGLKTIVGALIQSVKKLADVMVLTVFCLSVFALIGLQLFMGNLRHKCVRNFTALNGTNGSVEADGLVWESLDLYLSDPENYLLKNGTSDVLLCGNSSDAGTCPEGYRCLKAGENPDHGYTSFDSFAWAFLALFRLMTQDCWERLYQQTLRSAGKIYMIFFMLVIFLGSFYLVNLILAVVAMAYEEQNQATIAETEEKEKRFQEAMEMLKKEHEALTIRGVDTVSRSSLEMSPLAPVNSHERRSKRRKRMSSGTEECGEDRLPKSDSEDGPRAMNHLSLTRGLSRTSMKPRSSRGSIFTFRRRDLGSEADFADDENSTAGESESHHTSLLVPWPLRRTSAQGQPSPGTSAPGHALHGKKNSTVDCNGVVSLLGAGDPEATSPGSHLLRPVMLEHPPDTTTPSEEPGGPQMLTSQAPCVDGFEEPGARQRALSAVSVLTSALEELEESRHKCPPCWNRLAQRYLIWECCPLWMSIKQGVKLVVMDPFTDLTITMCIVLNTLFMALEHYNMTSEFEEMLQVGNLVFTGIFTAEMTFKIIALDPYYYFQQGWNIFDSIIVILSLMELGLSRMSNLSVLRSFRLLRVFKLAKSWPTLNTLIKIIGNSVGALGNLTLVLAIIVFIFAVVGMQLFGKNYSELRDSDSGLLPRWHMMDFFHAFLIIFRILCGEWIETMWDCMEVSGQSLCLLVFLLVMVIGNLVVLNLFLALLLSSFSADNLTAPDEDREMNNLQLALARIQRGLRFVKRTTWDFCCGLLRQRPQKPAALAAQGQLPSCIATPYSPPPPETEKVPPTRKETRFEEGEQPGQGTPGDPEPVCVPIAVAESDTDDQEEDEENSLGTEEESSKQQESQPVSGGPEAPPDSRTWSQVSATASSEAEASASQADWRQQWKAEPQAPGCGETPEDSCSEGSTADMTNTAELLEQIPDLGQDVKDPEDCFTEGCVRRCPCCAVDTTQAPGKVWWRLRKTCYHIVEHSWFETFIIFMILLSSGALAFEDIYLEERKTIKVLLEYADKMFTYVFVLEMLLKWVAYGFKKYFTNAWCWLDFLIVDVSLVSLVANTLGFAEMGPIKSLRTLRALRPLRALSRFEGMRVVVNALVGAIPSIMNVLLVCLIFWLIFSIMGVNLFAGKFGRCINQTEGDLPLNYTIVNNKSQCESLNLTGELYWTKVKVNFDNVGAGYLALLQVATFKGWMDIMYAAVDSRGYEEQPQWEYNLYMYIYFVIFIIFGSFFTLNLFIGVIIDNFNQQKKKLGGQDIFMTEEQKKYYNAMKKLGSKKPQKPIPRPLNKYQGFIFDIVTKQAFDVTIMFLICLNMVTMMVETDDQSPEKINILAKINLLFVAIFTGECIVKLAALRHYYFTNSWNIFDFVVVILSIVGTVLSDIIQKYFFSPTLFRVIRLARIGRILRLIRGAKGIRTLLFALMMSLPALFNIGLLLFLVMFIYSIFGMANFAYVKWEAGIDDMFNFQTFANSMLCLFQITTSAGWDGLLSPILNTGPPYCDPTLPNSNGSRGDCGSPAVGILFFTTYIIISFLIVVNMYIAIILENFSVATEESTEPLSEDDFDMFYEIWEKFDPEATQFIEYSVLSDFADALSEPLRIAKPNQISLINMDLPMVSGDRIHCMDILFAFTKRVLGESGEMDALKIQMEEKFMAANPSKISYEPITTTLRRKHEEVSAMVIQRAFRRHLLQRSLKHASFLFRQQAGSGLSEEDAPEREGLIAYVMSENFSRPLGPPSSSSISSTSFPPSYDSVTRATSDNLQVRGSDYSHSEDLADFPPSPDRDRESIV

Turning to `CC[C@H](C)[C@@H]1NC(=O)[C@@H]2CSSC[C@@H]3NC(=O)[C@H](C(C)C)NC(=O)[C@H](CC(C)C)NC(=O)[C@H](CC(N)=O)NC(=O)[C@@H]4CCCN4C(=O)[C@H](CCCNC(=N)N)NC(=O)[C@H](CSSC[C@H](NC(=O)[C@@H](N)CC(=O)O)C(=O)N[C@@H](CC(C)C)C(=O)NCC(=O)N[C@@H](Cc4ccccc4)C(=O)N[C@@H](CCSC)C(=O)N[C@@H](CCCNC(=N)N)C(=O)N[C@@H](CCCCN)C(=O)N2)NC(=O)[C@H](CSSC[C@@H](C(=O)N[C@@H](CCCCN)C(=O)N[C@@H](Cc2ccc(O)cc2)C(=O)N[C@H](C(=O)N[C@@H](Cc2ccccc2)C(N)=O)C(C)C)NC(=O)[C@H](Cc2c[nH]c4ccccc24)NC(=O)[C@H](CCCCN)NC(=O)[C@H](CC(C)C)NC(=O)[C@H]([C@@H](C)O)NC(=O)[C@H](CCCNC(=N)N)NC(=O)[C@H](CO)NC3=O)NC(=O)[C@H](CCCCN)NC(=O)[C@H](CC(=O)O)NC(=O)[C@H](CC(N)=O)NC(=O)[C@H](CC(=O)O)NC(=O)[C@@H]2CCCN2C1=O` [compound 111] (H-DCLGFMRKCIPDNDKCCRPNLVCSRTLKWCKYVF-NH2; disulfide 2-17, 9-23, 16-30), the IC50 in assay [1] (Table 23, use, […]) was determined as 1.15 µM; in assay [2] (Table 23, IonWorks Quattro, use, […], read-out: IWQ Use Nav1.5), 6.19 µM; in assay [3] (Table 23, use, […]), 1.01 µM.

As to `CC[C@H](C)[C@@H]1NC(=O)[C@@H]2CSSC[C@@H]3NC(=O)[C@H](C(C)C)NC(=O)[C@H](CC(C)C)NC(=O)[C@H](CC(N)=O)NC(=O)[C@@H]4CCCN4C(=O)[C@H](CCCNC(=N)N)NC(=O)[C@H](CSSC[C@H](NC(=O)[C@@H](N)CC(=O)O)C(=O)N[C@@H](CC(C)C)C(=O)NCC(=O)N[C@@H](Cc4ccccc4)C(=O)N[C@@H](CCSC)C(=O)N[C@@H](CCCNC(=N)N)C(=O)N[C@@H](CCCCN)C(=O)N2)NC(=O)[C@H](CSSC[C@@H](C(=O)N[C@@H](CCCCN)C(=O)N[C@@H](Cc2ccc(O)cc2)C(=O)N[C@H](C(=O)N[C@@H](Cc2ccccc2)C(N)=O)C(C)C)NC(=O)[C@H](CC(C)C)NC(=O)[C@H](CCCCN)NC(=O)[C@H](Cc2c[nH]cn2)NC(=O)[C@H]([C@@H](C)O)NC(=O)[C@H](CCCNC(=N)N)NC(=O)[C@H](CO)NC3=O)NC(=O)[C@H](CCCCN)NC(=O)[C@H](CC(=O)O)NC(=O)[C@H](CC(N)=O)NC(=O)[C@H](CC(=O)O)NC(=O)[C@@H]2CCCN2C1=O` [compound 114] (H-DCLGFMRKCIPDNDKCCRPNLVCSRTHKLCKYVF-NH2; disulfide 2-17, 9-23, 16-30), the IC50 in assay [1] (Table 24, use, […]) is 6.99 µM; in assay [2] (Table 24, IonWorks Quattro, use, […], read-out: IWQ Use Nav1.5) it was 7.27 µM; in assay [3] (Table 24, use, […]), 9.8 µM.

Consider `CC[C@H](C)[C@@H]1NC(=O)[C@@H]2CSSC[C@@H]3NC(=O)[C@H](C(C)C)NC(=O)[C@H](CC(C)C)NC(=O)[C@H](CC(N)=O)NC(=O)[C@@H]4CCCN4C(=O)[C@H](CCCNC(N)=O)NC(=O)[C@H](CSSC[C@H](NC(=O)[C@@H](N)CC(=O)O)C(=O)N[C@@H](CC(C)C)C(=O)NCC(=O)N[C@@H](Cc4ccccc4)C(=O)N[C@@H](CCSC)C(=O)N[C@@H](CCCNC(=N)N)C(=O)N[C@@H](CCCCN)C(=O)N2)NC(=O)[C@H](CSSC[C@@H](C(=O)N[C@@H](CCCCN)C(=O)N[C@@H](Cc2ccc(O)cc2)C(=O)N[C@H](C(=O)N[C@@H](Cc2ccccc2)C(N)=O)C(C)C)NC(=O)[C@H](Cc2c[nH]c4ccccc24)NC(=O)[C@H](CCCCN)NC(=O)[C@H](Cc2cnc[nH]2)NC(=O)[C@H]([C@@H](C)O)NC(=O)[C@H](CCCNC(=N)N)NC(=O)[C@H](CO)NC3=O)NC(=O)[C@H](CCCCN)NC(=O)[C@H](CC(=O)O)NC(=O)[C@H](CC(N)=O)NC(=O)[C@H](CC(=O)O)NC(=O)[C@@H]2CCCN2C1=O` [compound 116], for which the IC50 is 0.17 µM in assay [1] (Use), 11 µM in assay [2] (IWQ Use Nav1.5 (μM)) and 0.23 µM in assay [3] (Use).

`CC[C@H](C)[C@@H]1NC(=O)[C@@H]2CSSC[C@@H]3NC(=O)[C@H](C(C)C)NC(=O)[C@H](CC(C)C)NC(=O)[C@H](CC(N)=O)NC(=O)[C@@H]4CCCN4C(=O)[C@H](CCCNC(=N)N)NC(=O)[C@H](CSSC[C@H](NC(=O)[C@@H](N)CC(=O)O)C(=O)N[C@@H](CC(C)C)C(=O)NCC(=O)N[C@@H](Cc4ccccc4)C(=O)N[C@@H](CCSC)C(=O)N[C@@H](CCCNC(=N)N)C(=O)N[C@@H](CCCCN)C(=O)N2)NC(=O)[C@H](CSSC[C@@H](C(=O)N[C@@H](CCCCN)C(=O)N[C@@H](Cc2ccc(O)cc2)C(=O)N[C@H](C(=O)N[C@@H](Cc2ccccc2)C(N)=O)C(C)C)NC(=O)[C@H](Cc2c[nH]c4ccccc24)NC(=O)[C@H](CCCCN)NC(=O)[C@H](Cc2c[nH]cn2)NC(=O)[C@H]([C@@H](C)O)NC(=O)[C@H](CCCNC(N)=O)NC(=O)[C@H](CO)NC3=O)NC(=O)[C@H](CCCCN)NC(=O)[C@H](CC(=O)O)NC(=O)[C@H](CC(N)=O)NC(=O)[C@H](CC(=O)O)NC(=O)[C@@H]2CCCN2C1=O` [compound 117]: the IC50 in assay [1] (Use) came to 0.32 µM; in assay [2] (setting [4]) it was 8.87 µM; in assay [3] (Use), 0.51 µM.

On to `CC[C@H](C)[C@@H]1NC(=O)[C@@H]2CSSC[C@@H]3NC(=O)[C@H](C(C)C)NC(=O)[C@H](CCSC)NC(=O)[C@H](CC(N)=O)NC(=O)[C@@H]4CCCN4C(=O)[C@H](CCCNC(=N)N)NC(=O)[C@H](CSSC[C@H](NC(=O)[C@@H](N)CC(=O)O)C(=O)N[C@@H](CC(C)C)C(=O)NCC(=O)N[C@@H](Cc4ccccc4)C(=O)N[C@@H](CCSC)C(=O)N[C@@H](CCCNC(=N)N)C(=O)N[C@@H](CCCCN)C(=O)N2)NC(=O)[C@H](CSSC[C@@H](C(=O)N[C@@H](CCCCN)C(=O)N[C@@H](Cc2ccc(O)cc2)C(=O)N[C@H](C(=O)N[C@@H](Cc2ccccc2)C(N)=O)C(C)C)NC(=O)[C@H](Cc2c[nH]c4ccccc24)NC(=O)[C@H](CCCCN)NC(=O)[C@H](Cc2c[nH]cn2)NC(=O)[C@H]([C@@H](C)O)NC(=O)[C@H](CCCNC(=N)N)NC(=O)[C@H](CO)NC3=O)NC(=O)[C@H](CCCCN)NC(=O)[C@H](CC(=O)O)NC(=O)[C@H](CC(N)=O)NC(=O)[C@H](CC(=O)O)NC(=O)[C@@H]2CCCN2C1=O` [compound 120] (H-DCLGFMRKCIPDNDKCCRPNMVCSRTHKWCKYVF-NH2; disulfide 2-17, 9-23, 16-30), for which the IC50 in assay [1] (Use) was 0.14 µM; in assay [2] (setting [4]), 9.54 µM; in assay [3] (Use), 0.09 µM.

Take `CC[C@H](C)[C@@H]1NC(=O)[C@@H]2CSSC[C@@H]3NC(=O)[C@H](C(C)C)NC(=O)[C@H](CC(C)C)NC(=O)[C@H](CC(N)=O)NC(=O)[C@@H]4CCCN4C(=O)[C@H](CCCNC(=N)N)NC(=O)[C@H](CSSC[C@H](NC(=O)[C@@H](N)CC(=O)O)C(=O)N[C@@H](CC(C)C)C(=O)NCC(=O)N[C@@H](Cc4ccccc4)C(=O)N[C@@H](CCSC)C(=O)N[C@@H](CCCNC(=N)N)C(=O)N[C@@H](CCCCN)C(=O)N2)NC(=O)[C@H](CSSC[C@@H](C(=O)N[C@@H](CCCCN)C(=O)N[C@@H](Cc2ccc(O)cc2)C(=O)N[C@H](C(=O)N[C@@H](CC(C)C)C(N)=O)C(C)C)NC(=O)[C@H](Cc2c[nH]c4ccccc24)NC(=O)[C@H](CCCCN)NC(=O)[C@H](Cc2c[nH]cn2)NC(=O)[C@H]([C@@H](C)O)NC(=O)[C@H](CCCNC(=N)N)NC(=O)[C@H](CO)NC3=O)NC(=O)[C@H](CCCCN)NC(=O)[C@H](CC(=O)O)NC(=O)[C@H](CC(N)=O)NC(=O)[C@H](CC(=O)O)NC(=O)[C@@H]2CCCN2C1=O` [compound 122] (H-DCLGFMRKCIPDNDKCCRPNLVCSRTHKWCKYVL-NH2; disulfide 2-17, 9-23, 16-30): the IC50 was 0.24 µM in assay [1] (use-dependent, […]); 8.46 µM in assay [2] (IonWorks Quattro, use-dependent, […], read-out: IWQ Use Nav1.5); 0.13 µM in assay [3] (use-dependent, […]).

Turning to `CC[C@H](C)[C@@H]1NC(=O)[C@@H]2CSSC[C@@H]3NC(=O)[C@H](C(C)C)NC(=O)[C@H](CC(C)C)NC(=O)[C@H](CC(N)=O)NC(=O)CNC(=O)[C@H](CCCNC(=N)N)NC(=O)[C@H](CSSC[C@H](NC(=O)[C@@H](N)CC(=O)O)C(=O)N[C@@H](CC(C)C)C(=O)NCC(=O)N[C@@H](Cc4ccccc4)C(=O)N[C@@H](CCSC)C(=O)N[C@@H](CCCNC(=N)N)C(=O)N[C@@H](CCCCN)C(=O)N2)NC(=O)[C@H](CSSC[C@@H](C(=O)N[C@@H](CCCCN)C(=O)N[C@@H](Cc2ccc(O)cc2)C(=O)N[C@H](C(=O)N[C@@H](Cc2ccccc2)C(N)=O)C(C)C)NC(=O)[C@H](Cc2c[nH]c4ccccc24)NC(=O)[C@H](CCCCN)NC(=O)[C@H](Cc2c[nH]cn2)NC(=O)[C@H]([C@@H](C)O)NC(=O)[C@H](CCCNC(=N)N)NC(=O)[C@H](CO)NC3=O)NC(=O)[C@H](CCCCN)NC(=O)[C@H](CC(=O)O)NC(=O)[C@H](CC(N)=O)NC(=O)[C@H](CC(=O)O)NC(=O)[C@@H]2CCCN2C1=O` [compound 126] (H-DCLGFMRKCIPDNDKCCRGNLVCSRTHKWCKYVF-NH2; disulfide 2-17, 9-23, 16-30), the IC50 in assay [1] (Use) was found to be 0.1 µM; in assay [2] (setting [4]), 11.9 µM; in assay [3] (Use), 0.11 µM.
